Source: US8202890B2, “Pest control agent” (Meiji Seika Pharma Co., Ltd., priority 2006, dated 2012)

Experiments:
Myzus persicae = test: Pesticidal effect against Myzus persicae (cabbage leaf disk); type: in vivo; details: Myzus persicae first instar larvae, spread, 3 days, 25° C.
Text: A leaf disk having a diameter of 2.8 cmφ was cut out from a cabbage grown in a pot and was placed in a 5.0 cm-Schale. Four adult aphids of Myzus persicae were released in the Schale. One day after the release of the adult aphids, the adult aphids were removed. The number of larvae at the first instar born in the leaf disk was adjusted to 10, and a test solution, which had been adjusted to a predetermined concentration by the addition of a 50% aqueous acetone solution (0.05% Tween 20 added) was spread over the cabbage leaf disk. The cabbage leaf disk was then air dried. Thereafter, the Schale was lidded and was allowed to stand in a temperature-controlled room (light period 16 hr-dark period 8 hr) (25° C.).
(§1) The death rate of larvae was calculated by the following equation. Death rate (%)={number of dead larvae/(number of survived larvae+number of dead larvae)}×100 The concentrations which gave the death rate of 90% or more are shown in Table 2.

Aphis gossypii = test: Pesticidal effect against Aphis gossypii (cucumber leaf disk); type: in vivo; details: Aphis gossypii first instar larvae, spread, 3 days, 25° C.
Text: A leaf disk having a diameter of 2.0 cmφ was cut out from a cucumber grown in a pot and was placed in a 5.0 cm-Schale. A test solution, which had been adjusted to a predetermined concentration by the addition of a 50% aqueous acetone solution (0.05% Tween 20 added) was spread over the […] leaf disk. After air dried, ten (10) of larvae of Aphis gossypii at the first instar were released in the Schale. Thereafter, the Schale was lidded and was allowed to stand in a temperature-controlled room (light period 16 hr-dark period 8 hr) (25° C.).
as §1

Pseudococcus comstocki = test: Pesticidal effect against Pseudococcus comstocki (Phaseolus vulgaris leaf disk); type: in vivo; details: Pseudococcus comstocki first instar larvae, spread, 3 days, 25° C.
Procedure: A leaf disk having a diameter of 2.8 cmφ was cut out from a leaf of Phaseolus vulgaris and was placed on an agar in a plastic cup, into which ten (10) of larvae of Pseudococcus comstocki at the first instar were released. A test solution, which had been adjusted to a predetermined concentration by the addition of a 50% aqueous acetone solution (0.05% Tween 20 added) was spread. After air dried, it was allowed to stand in a temperature-controlled room (light period 16 hr-dark period 8 hr) (25° C.).
as §1

Tenebrio molitor L = details: in vivo; cited from earlier work
[1] = tested on: larvae of Helicoverpa zea; details: in vivo; cited from earlier work
[2] = tested on: Plutella xylostella L larvae; details: in vivo; cited from earlier work

Molecule | Concentration (ppm) for the death rate of 90% or more, Test Example 1 (Myzus persicae) [ppm] | Concentration (ppm) for the death rate of 90% or more, Test Example 2 (Aphis gossypii) [ppm] | Concentration (ppm) for the death rate of 90% or more, Test Example 3 (Pseudococcus comstocki) [ppm] | insecticidal activity against Tenebrio molitor L (Tenebrio molitor L) | insecticidal activity against larvae of Helicoverpa zea [1] | insecticidal activity against Plutella xylostella L larvae [2]
CC1(COC(=O)C2CC2)C2CC(=O)[C@@]3(C)Oc4cc(-c5cccnc5)oc(=O)c4[C@H](O)C3[C@@]2(C)CC[C@@H]1OC(=O)C1CC1 (stereo partly drawn) [Compound 1] | 0.010 | 0.078 | 0.156 |  |  | 
CC1(COC(=O)C2CC2)C2CC[C@@]3(C)Oc4cc(-c5cccnc5)oc(=O)c4[C@H](O)C3[C@@]2(C)CC[C@@H]1OC(=O)C1CC1 (stereo partly drawn) [Compound 2] | 0.039 | 0.078 | 0.625 |  |  | 
Pyripyropene A |  |  |  | insecticidal activity | insecticidal activity | insecticidal activity
